Laboratory results: PMC6278306, “Anti-Leishmanial and Cytotoxic Activities of a Series of Maleimides: Synthesis, Biological Evaluation and Structure-Activity Relationship” (Molecules, 2018)
Values after ≈ are worked out from the molar mass of the structure shown.

Legend:
[1] = test system: L. donovani promastigotes; experiment: In vitro anti-leishmanial assay (Alamar blue, promastigotes); type: cell-based, Leishmania donovani; conditions: for IC50: Leishmania donovani, 48 h, read-out: L. donvani IC50; for SI: SI = CC50 /IC50, THP1 vs promastigotes
Experimental: Anti-leishmanial activity in vitro was described in terms of IC50, which is the effective concentration (μg/mL) required to achieve 50% growth inhibition, with promastigotes in their exponential growth phase.
In vitro anti-leishmanial assay. The antileishmanial activity of the compounds was tested in vitro against a culture of L. donovani promastigotes. The promastigotes were grown in RPMI 1640 medium supplemented with 10% fetal calf serum (Gibco Chem. Co., 81 Wyman Street, Waltham, MA, USA) at 26 °C. A three day old culture was diluted to 5 × 10^5 promastigotes/mL. Drug dilutions were prepared directly in cell suspension in 96-well plates. Plates were incubated at 26 °C for 48 h and the growth of Leishmania promastigotes was determined by the Alamar blue assay as described earlier. Standard fluorescence was measured on a Fluostar Galaxy plate reader (BMG Lab Technologies, Offenburg, Germany) at an excitation wavelength of 544 nm and an emission wavelength of 590 nm. […] IC50 values were computed from dose-response curves as above. The tested compounds were diluted with six concentrations (from 40–0.0128 μg/mL). Cytotoxicity assay. The in vitro cytotoxicity was determined against human monocytic leukemia cells (THP1) with a simple colorimetric method using the dye Alamar Blue. […] Cells were grown to a density between 0.2 and 1 × 10^6 cells/mL. Culture medium was replaced every 2–3 days with fresh growth medium. DMSO was used as the solvent, and the test compounds was with six concentrations from 10–0.0032 μg/mL.

[2] = Cytotoxicity assay (Alamar Blue); type: cell-based; conditions: human, concentrations 10–0.0032 μg/mL
Experimental: In order to verify the safety of maleimides, they were tested for cytotoxicity against human monocytic leukemia cells (THP1) 50% cytotoxic concentration values represent the concentration of compound required to kill 50% of the THP1 cells were calculated (CC50). The selectivity indices were calculated using the formula SI = CC50 /IC50, against promastigotes. […] SIs of 16 and 42 were greater than 781.3.
In vitro anti-leishmanial assay. The antileishmanial activity of the compounds was tested in vitro against a culture of L. donovani promastigotes. The promastigotes were grown in RPMI 1640 medium supplemented with 10% fetal calf serum (Gibco Chem. Co., 81 Wyman Street, Waltham, MA, USA) at 26 °C. A three day old culture was diluted to 5 × 10^5 promastigotes/mL. Drug dilutions were prepared directly in cell suspension in 96-well plates. Plates were incubated at 26 °C for 48 h and the growth of Leishmania promastigotes was determined by the Alamar blue assay as described earlier. Standard fluorescence was measured on a Fluostar Galaxy plate reader (BMG Lab Technologies, Offenburg, Germany) at an excitation wavelength of 544 nm and an emission wavelength of 590 nm. Pentamidine and amphotericin B were used as the standard anti-leishmanial agents. IC50 values were computed from dose-response curves as above. The tested compounds were diluted with six concentrations (from 40–0.0128 μg/mL). Cytotoxicity assay. The in vitro cytotoxicity was determined against human monocytic leukemia cells (THP1) with a simple colorimetric method using the dye Alamar Blue. […] Cells were grown to a density between 0.2 and 1 × 10^6 cells/mL. Culture medium was replaced every 2–3 days with fresh growth medium. DMSO was used as the solvent, and the test compounds was with six concentrations from 10–0.0032 μg/mL.
The in vitro cytotoxicity was determined against human monocytic leukemia cells (THP1) with a simple colorimetric method using the dye Alamar Blue, which was reported in the reference (Mikus, J.; Steverding, D. A simple colorimetric method to screen drug cytotoxicity against Leishmania, using the dye Alamar Blue. Parasitol Int. 2000, 48(3),265-269.). THP1 suspensions were grown in RPMI-1640 medium supplemented with 10% FBS, 2 mM glutamine, 50 μg/mL […]
were grown to a density between 0.2 and 1×10^6 cells/mL. Culture medium was replaced every 2-3 days with fresh growth medium. DMSO was used as the solvent, and the test compounds was with six concentrations from 10-0.0032μg/mL.

β-(1,3)-glucan synthase = test system: β-(1,3)-glucan synthase; set-up: method as in PMID 21612375; conditions: cited from earlier work
[3] = THP1 cells (human monocytic leukemia)

Row | Structure (SMILES) | IC50 [1] | SI [1] | CC50 ([2]; THP1 cells) | melting point | CC50 [2, 3] | anti-leishmanial activity, times better than amphotericin B ([1]; L. donovani, relative to amphotericin B) | IC50 β-(1,3)-glucan synthase (β-(1,3)-glucan synthase)
1 | CC1=CC(=O)N(c2cc(Cl)cc(Cl)c2)C1=O [Compound 25] | 0.34 µg/mL (≈ 1.33 µM) | 2.4 | 0.8 µg/mL (≈ 3.12 µM) | 170.8 to 173.2 °C |  |  | 
2 | CC1=CC(=O)N(CC(C)C)C1=O [Compound 26] | 0.64 µg/mL (≈ 3.83 µM) | >15.6 |  |  | > 10 µg/mL |  | 
3 | CC1=CC(=O)N(C2CCCCC2)C1=O [Compound 27] | 0.89 µg/mL (≈ 4.61 µM) | 8.0 |  | 65.6 to 66.5 °C | 7.15 µg/mL (≈ 37 µM) |  | 
4 | CCCCN1C(=O)C(Cl)=C(Cl)C1=O [Compound 28] | 0.47 µg/mL (≈ 2.12 µM) | >21.3 | > 10 µg/mL |  |  |  | 
5 | CCCCCN1C(=O)C(Cl)=C(Cl)C1=O [Compound 29] | 0.65 µg/mL (≈ 2.75 µM) | >15.4 | > 10 µg/mL |  |  |  | 
6 | CCCCCCN1C(=O)C(Cl)=C(Cl)C1=O [Compound 30] | 0.49 µg/mL (≈ 1.96 µM) | >20.4 | > 10 µg/mL |  |  |  | 
7 | CCCCCCCCN1C(=O)C(Cl)=C(Cl)C1=O [Compound 31] | 0.48 µg/mL (≈ 1.73 µM) | >20.8 | > 10 µg/mL |  |  |  | 
8 | O=C1C(Cl)=C(Cl)C(=O)N1CCc1ccccc1 [Compound 32] | 1.64 µg/mL (≈ 6.07 µM) | >6.1 | > 10 µg/mL |  |  |  | 
9 | O=C1C(Cl)=C(Cl)C(=O)N1CCCc1ccccc1 [Compound 33] | 0.4 µg/mL (≈ 1.41 µM) | >25.0 |  |  | > 10 µg/mL |  | 
10 | O=C1C(Cl)=C(Cl)C(=O)N1c1ccccc1 [Compound 34] | 0.76 µg/mL (≈ 3.14 µM) | >13.2 | > 10 µg/mL |  |  |  | 
11 | Cc1ccc(N2C(=O)C(Cl)=C(Cl)C2=O)cc1 [Compound 35] | 0.66 µg/mL (≈ 2.58 µM) | >15.2 | > 10 µg/mL |  |  |  | 
12 | O=C1C(Cl)=C(Cl)C(=O)N1c1ccc(F)cc1 [Compound 36] | 0.36 µg/mL (≈ 1.38 µM) | >27.8 |  |  | > 10 µg/mL |  | 
13 | O=C1C(Cl)=C(Cl)C(=O)N1c1ccc(Cl)cc1 [Compound 37] | 0.59 µg/mL (≈ 2.13 µM) | >16.9 | > 10 µg/mL |  |  |  | 
14 | Cc1cccc(C)c1N1C(=O)C(Cl)=C(Cl)C1=O [Compound 38] | 0.45 µg/mL (≈ 1.67 µM) | >22.2 | > 10 µg/mL | 200.8 to 201.6 °C |  |  | 
15 | CCc1cccc(CC)c1N1C(=O)C(Cl)=C(Cl)C1=O [Compound 39] | 0.13 µg/mL (≈ 0.436 µM) | >76.9 | > 10 µg/mL | 204.1 to 205.8 °C |  |  | 
16 | Cc1c(Cl)cccc1N1C(=O)C(Cl)=C(Cl)C1=O [Compound 40] | 0.13 µg/mL (≈ 0.447 µM) | >76.9 | > 10 µg/mL | 162.3 to 164.1 °C |  |  | 
17 | Cc1ccc(Cl)cc1N1C(=O)C(Cl)=C(Cl)C1=O [Compound 41] | 0.11 µg/mL (≈ 0.379 µM) | >90.9 | > 10 µg/mL | 160.1 to 161.4 °C |  |  | 
18 | Cc1c(N2C(=O)C(Cl)=C(Cl)C2=O)cccc1[N+](=O)[O-] [Compound 42] | < 0.0128 µg/mL |  |  | 168.8 to 169.9 °C | > 10 µg/mL | 10 | 
19 | O=C1C(Cl)=C(Cl)C(=O)N1c1cc(Cl)cc(Cl)c1 [Compound 43] | 0.99 µg/mL (≈ 3.18 µM) | >10.1 | > 10 µg/mL |  |  |  | 
20 | CC(C)CN1C(=O)C(Cl)=C(Cl)C1=O [Compound 44] | 0.43 µg/mL (≈ 1.94 µM) | >23.3 |  | 63.8 to 64.5 °C | > 10 µg/mL |  | 
21 | O=C1C(Cl)=C(Cl)C(=O)N1C1CCCCC1 [Compound 45] | 0.26 µg/mL (≈ 1.05 µM) | >38.5 | > 10 µg/mL | 67.2 to 68.5 °C |  |  | 
22 | CCN1C(=O)C=CC1=O [N-ethyl-maleimide] |  |  |  |  |  |  | 8.5 ± 1.1 µg/mL (≈ 67.9 µM)
23 | CC(C)(C)N1C(=O)C=CC1=O [N-tert-butyl-maleimide] |  |  |  |  |  |  | 13.7 ± 2.3 µg/mL (≈ 89.4 µM)
24 | N=C(N)c1ccc(OCCCCCOc2ccc(C(=N)N)cc2)cc1 [pentamidine, reference compound] | 0.64 µg/mL (≈ 1.88 µM) |  |  |  |  |  | 
